One molecule from patent US10500188B1, “Use of a polyenylpyrrole derivative in preparation of anti-oral cancer drugs” (TZU CHI UNIVERSITY, priority 2019, dated 2019) can be followed below.

One data set concerns normal oral cells (K2). The data set can be described thus: MTT cell proliferation assay, normal oral cells (K2). It counts as cell-based. As to conditions: 100, 500, 800, 1000 nM, 24 and 48 hr, FIG. 2A. How it is done: MTT (3-(4,5-dimethylthiazol-2-yl)-2,5-diphenyltetrazolium bromide) assay is used for measuring cell proliferation. Add 3000 OSCC cells (SCC-15 and TW2.6) and 5000 immortalized cells (K2) into each well of a 96-well plate. Next day add the present polyenylpyrrole derivative (F236B) into the respective well and remove culture medium after 24 hours (hr) and 48 hr respectively. Then add MTT dissolved in culture medium (150 μL per well) except the background wells and react for 90 min. Lastly remove solution in the culture plate and add DMSO (150 μL per well) into the culture plate for dissolving the pigment. After being dissolved completely, use the ELISA machine to measure absorbance at 570 nm. […] 2A-2C.

Data set [1] deals with patient oral cancer tissue xenograft. The data set is described as follows: Patient-derived xenograft (PDX) model of patients with oral cancers. It counts as in vivo, NOD-SCID male mice. The text has this:
(§1) In order to learn whether in vivo test results of OSCC cells (SCC-15, TW2.6) are consistent with in vitro test results of the same, a cell-line-derived xenograft model (SCC-15 cell line) and a patient-derived xenograft (PDX) model of patients with oral cancers are used to test xenograft tumorigenicity of oral cancer cells and the results are shown in FIG. 2D-2F.
After approval of the institutional review board (IRB), oral cancer tissues of patients are collected at the Department of Otolaryngology, Hualien Tzu Chi Hospital during the period from Jul. 1, 2016 to Jun. 30, 2017. The PDX model has been established by immersing and washing the samples collected in Penicillin/Streptomycin diluted 2-fold with PBS, and using six-to-eight-week-old NOD-SCID male mice. After injection of a 0.01 mL/g body weight dose of ketamine/xylazine into a mouse, a 1.5×1.5 cm^2 skin surface at the right abdomen of the anesthetized mouse is treated with a depilatory agent to remove hair. Use tincture of iodine as a disinfectant and cut a wound of […] on the mouse skin and suture the wound after tumor tissue being applied. During recovery period, the rearing cage is set on the heating pad and turned back to the rearing rack after recovery. After the surgery, observe the mouse day by day and then get the mouse out of the cage when the tumor reaches a diameter of about 1 cm. […]
On the technique in general: In xenograft studies the graft and the host belong to different species.

Data set [2] relates to SCC-15 cells. The data set can be described thus: Tumor sphere formation on matrigel. It counts as cell-based, human. As to conditions: compared with the Par-4-KD group; FIG. 4. The method, then:
Refer to FIG. 4, the test results of the tumor sphere formation ability of the OSCC cells are shown. In order to culture cells (SCC-15) for tumor sphere formation, each well of a 24-well plate is coated with 150 μL growth factor reduced matrigel, then placed in 4° C. refrigerator and shaken for 15 minutes to make the growth factor reduced matrigel distribute evenly therein. Place in 37° C. incubator for 1 hour. After firm matrigel formation, each well is added with 5000 SCC-15 cells and change culture medium every day.

Data set [3] concerns prostate apoptosis response-4 (Par-4). The data set can be described thus: Expression of Par-4 in OSCC cells. Format: cell-based. As to conditions: FIG. 3C. The method, then: Also refer to FIG. 3D and FIG. 3E. The results of the SC group (SCC-15 cell line without the knockdown Par-4 gene) treated with 10 nM, 50 nM, 80 nM, 100 nM, and 200 nM polyenylpyrrole derivative (F236B) for 24 hours and 48 hours respectively are shown in FIG. 3D. The results of the Par-4-KD group (SCC-15 cell line with the knockdown Par-4 gene) treated with 10 nM, 50 nM, 80 nM, 100 nM, and 200 nM polyenylpyrrole derivative (F236B) for 24 hours and 48 hours respectively are shown in FIG. 3E.

Data set [4] deals with SCC-15 cells. The data set is described as follows: Transwell assay for movement of tumor cells. As to conditions: 24 and 48 hrs, compared with the Par-4-KD group, FIG. 6. It counts as cell-based, human. The method, then:
Refer to FIG. 6, a transwell assay is used for testing movement of tumor cells. A 24-well transwell chamber with 8.0 μm polycarbonate membrane (6.5 mm) therein is used. Add 100 μL serum free media into the upper layer and 500 μL media containing 10% serum into the lower layer. Then add 5000 cells (SCC-15) into the upper layer of each well, incubate overnight and add the polyenylpyrrole derivative (F236B). Remove the upper layer after 24 hrs and 48 hrs, respectively and wash 2 times with PBS. Add methanol (500 μL per well) at 4° C. for 1 hr for fixation and wash 2 times with PBS. Next, stain with crystal violet for 10 min and wash 2 times with PBS. Lastly observe and count the number of cells moved to the lower layer.

In another data set the test system is OSCC cells (SCC-15). The data set is described as follows: MTT cell proliferation assay, OSCC cells (SCC-15). It counts as cell-based, human. The method, then: (§2) MTT (3-(4,5-dimethylthiazol-2-yl)-2,5-diphenyltetrazolium bromide) assay is used for measuring cell proliferation. Add 3000 OSCC cells (SCC-15 and TW2.6) and 5000 immortalized cells (K2) into each well of a 96-well plate. Next day add the present polyenylpyrrole derivative (F236B) into the respective well and remove culture medium after 24 hours (hr) and 48 hr respectively. Then add MTT dissolved in culture medium (150 μL per well) except the background wells and react for 90 min. Lastly remove solution in the culture plate and add DMSO (150 μL per well) into the culture plate for dissolving the pigment. After being dissolved completely, use the ELISA machine to measure absorbance at 570 nm. The concentration of the polyenylpyrrole derivative (F236B) used is 10, 50, 80, 100, and 200 nM respectively, as results shown in FIG. 2A-2C.
Also refer to FIG. 2C, test results of OSCC cells (TW2.6) treated with 10, 50, 80, 100, and 200 nM polyenylpyrrole derivative (F236B) respectively are disclosed. […] Moreover, the present polyenylpyrrole derivative (F236B) not only has effects on the OSCC cells of Western people (SCC-15) but also affects the OSCC cells of Asians (TW2.6). Thus the polyenylpyrrole derivative (F236B) can be widely used in the OSCC cells. In the previous tests for assessment of the effects of natural products on cancer cells, the unit of the concentration unit used is μM. […]
In general terms: Tetrazolium assays rely on reduction of a dye to a coloured formazan, in cell work by metabolically active cells.

The next data set has as its system SCC-15 xenograft tumor. The data set can be described thus: Cell-line-derived xenograft model (SCC-15 cell line). Format: in vivo, NOD-SCID male mice. Particulars: 1 mg/kg s.c. into neck, vs PBS control, FIG. 2D.
Excerpt: as §1
As to the cell-line-derived xenograft model, six-to-eight-week-old NOD-SCID male mice are used. About 5×10^6 SCC-15 cells are subcutaneously injected into the right abdominal of the mouse. There are two experimental groups. The mouse in the first group (I) is injected with the polyenylpyrrole derivative (F236B) the day after being injected with the OSCC cells. In the second group (II), the mouse is injected with the polyenylpyrrole derivative (F236B) when the tumor grows to a size with a diameter of about […]. The polyenylpyrrole derivative (F236B) at a dose of 1 mg/kg is subcutaneously injected into the neck of the mouse. Samples are taken when the cells grow to a size with a diameter of about 1 cm (21-day).

Data set [5] has as its system TW2.6 human oral squamous cell carcinoma (OSCC) cell line. The data set is described as follows: MTT cell proliferation assay, OSCC cells (TW2.6). It counts as cell-based. As to conditions: 10, 50, 80, 100, 200 nM, 24 and 48 hr, FIG. 2C.
Excerpt: The present polyenylpyrrole derivative is used to inhibit oral cancer cells. The oral cancer cell can be oral squamous cell carcinoma (OSCC) cell (SCC-15 cell line). The TW2.6 human oral squamous cell carcinoma (OSCC) cell line obtained from Asian people can also be used in cell proliferation assay.
as §2
Also refer to FIG. 2C, test results of OSCC cells (TW2.6) treated with 10, 50, 80, 100, and 200 nM polyenylpyrrole derivative (F236B) respectively are disclosed. […]

Data set [6] deals with SCC-15 cell line without the knockdown Par-4 gene. The data set is described as follows: Migration test, SC group. Particulars: 100 nM and 200 nM; 0, 3, 9 hr; FIG. 5A. Format: cell-based, human. The method, then:
Then migration and movement of the Par-4-KD group and the SC group treated with polyenylpyrrole derivative (F236B) is tested and the results are shown in FIG. 5A-5B and FIG. 6.
The results of the Par-4-KD group (SCC-15 cell line with the knockdown Par-4 gene) treated with 100 nM and 200 nM polyenylpyrrole derivative (F236B) for 0, 3, and 9 hrs respectively are shown in FIG. 5B.

Data set [7] has as its system IL-17RA in OSCC cells (SCC-15). The data set is described as follows: Western blot of IL-17RA expression. Particulars: SCC-15, Western blot, vs DMSO control; FIG. 7. It counts as cell-based, human. The method, then: Western blot is used to detect expression of IL-17RA in the OSCC cells (SCC-15) treated with the polyenylpyrrole derivative (F236B). The proteins are separated by SDS-PAGE gel and then transferred to a Polyvinylidene difluoride (PVDF) membrane. Then soak in 5% BSA (bovine serum albumin) for 1 hour for blocking. After removal of BSA and addition of primary antibodies, place the membrane in 4° C. refrigerator with constant shaking for 16 hr and wash 3 times with TBST-Tween20 (TBST) (each takes 15 min). Next add secondary antibodies and shake at room temperature for 1 hour. Then wash 3 times with TBST and each step takes 15 min. Lastly use enhanced chemiluminescent (ECL) reagent (RPN2106 ECL™ Western Blotting Reagent) for imaging and UVP BioSpectrum to detect images. […] Therefore, the reduction effect of the polyenylpyrrole derivative (F236B) on the expression of IL-17RA is associated with the tumor-suppressor function of the polyenylpyrrole derivative (F236B).

With `CCOc1cc(/C=C/C=C/C=C/C=C/c2[nH]ccc2Cl)oc(=O)c1` [F236B], in the data set on normal oral cells (K2), the “proliferation of normal oral cells (K2)” value is “doesn't affect the proliferation of normal oral cells”. Also, the “tumor volume, PDX” value in data set [1] (P3 mice, 1 mg/kg s.c. into neck, vs PBS control, FIG. 2E) was “dramatically decreased”. In addition, the “weight of the mouse” value in data set [1] (treated with F236B vs PBS, triplicate groups, FIG. 2F) is recorded as “not affected”. The “tumor sphere formation ability, SC group” value in the data set on SCC-15 cells [2] is listed as “obviously reduced”. Moreover, in [3], the “expression of Par-4 in the OSCC cells” value is recorded as “enhances expression of Par-4”. Also, the “movement of the OSCC cells in the SC group” value in the data set on SCC-15 cells [4] is “significantly reduced”. For the same molecule, the “proliferation of OSCC cells (SCC-15)” value with OSCC cells (SCC-15) (MTT, 10, 50, 80, 100, 200 nM, 24 and 48 hr, FIG. 2B) is “inhibits proliferation of the OSCC cells (SCC-15)”. For the same molecule, in the data set on OSCC cells (SCC-15) (SCC-15 without Par-4 knockdown, 10-200 nM, 24 and 48 hours, FIG. 3D), the “proliferation of OSCC cells in the SC group” value is listed as “apparently reduced”. In the data set with SCC-15 xenograft tumor (started the day after injection of OSCC cells, 21-day), the “tumor volume, first group (I)” value was “significantly reduced”. Besides, the “tumor volume, second group (II)” value in the data set with SCC-15 xenograft tumor (started when tumor diameter about 30 mm) is “significantly reduced”. The “proliferation of OSCC cells (TW2.6)” value in data set [5] is on record as “inhibits proliferation of the OSCC cells (TW2.6)”. The “migration ability, SC group” value in data set [6] was “clearly reduced”. The “expression of IL-17RA” value in [7] is recorded as “obviously inhibited”.
